Biological target: T1, human mGluR5a receptor (Homo sapiens, UniProt P41594)
T1 construct: cDNA subcloned into pcDNA3.1(-)
Test: Cell-based functional Ca2+ mobilization assay (FDSS), potentiation of glutamate EC20 response
Conditions: HEK cells transfected with human mGluR5 (H10H or H12H); in presence of EC20 glutamate
How it was run: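 HEK293A cells stably expressing human mGluR5a (H10H or H12H clones), plated overnight in glutamate-glutamine-free medium, loaded with Ca2+-sensitive dye (e.g. Fluo-4) and read on FDSS.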

T1 sequence (P41594 21-1180 isoform P41594-2 limits assumed): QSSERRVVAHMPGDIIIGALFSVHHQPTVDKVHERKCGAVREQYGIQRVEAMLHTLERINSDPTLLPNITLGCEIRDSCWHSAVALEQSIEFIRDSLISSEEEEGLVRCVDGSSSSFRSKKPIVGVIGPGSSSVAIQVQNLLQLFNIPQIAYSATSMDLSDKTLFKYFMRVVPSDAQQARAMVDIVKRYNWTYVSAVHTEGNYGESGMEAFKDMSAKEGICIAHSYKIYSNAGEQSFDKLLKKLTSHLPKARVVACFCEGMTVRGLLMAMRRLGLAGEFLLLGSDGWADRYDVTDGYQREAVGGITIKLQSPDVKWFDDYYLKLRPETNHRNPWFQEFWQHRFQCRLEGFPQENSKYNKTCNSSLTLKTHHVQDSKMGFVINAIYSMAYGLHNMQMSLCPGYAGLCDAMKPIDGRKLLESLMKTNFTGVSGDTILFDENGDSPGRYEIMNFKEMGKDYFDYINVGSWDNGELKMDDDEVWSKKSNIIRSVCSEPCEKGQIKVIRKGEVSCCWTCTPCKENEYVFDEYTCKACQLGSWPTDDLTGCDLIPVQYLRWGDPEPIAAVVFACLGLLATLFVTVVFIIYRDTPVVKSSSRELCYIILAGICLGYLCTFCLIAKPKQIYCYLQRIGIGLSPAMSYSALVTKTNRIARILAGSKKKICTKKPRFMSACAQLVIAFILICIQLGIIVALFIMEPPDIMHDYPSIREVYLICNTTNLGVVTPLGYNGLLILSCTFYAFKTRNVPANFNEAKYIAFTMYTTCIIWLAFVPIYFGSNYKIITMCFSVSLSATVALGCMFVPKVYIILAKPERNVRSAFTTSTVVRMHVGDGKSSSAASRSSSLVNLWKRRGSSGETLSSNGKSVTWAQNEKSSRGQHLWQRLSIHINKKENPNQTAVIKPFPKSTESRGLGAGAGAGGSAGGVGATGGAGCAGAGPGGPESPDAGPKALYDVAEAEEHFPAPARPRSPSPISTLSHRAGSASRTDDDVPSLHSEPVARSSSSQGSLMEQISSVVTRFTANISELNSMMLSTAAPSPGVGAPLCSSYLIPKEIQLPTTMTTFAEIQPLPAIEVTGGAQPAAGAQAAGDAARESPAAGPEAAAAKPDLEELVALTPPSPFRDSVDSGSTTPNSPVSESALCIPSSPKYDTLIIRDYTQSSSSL

Row | pEC50 | Structure (SMILES)
1 | 7.14 | O=C1c2cc(COc3ccccc3)nn2CCN1c1ccc2scnc2c1 [Example 361]
2 | 7.34 | O=C1c2cc(COc3ccccc3)nn2CCN1c1ccc2nccc(Cl)c2c1 [Example 364]
3 | 7.40 | O=C1c2cc(COc3ccccc3)nn2CCN1c1cccc(Cl)n1 [Example 365]
4 | 6.07 | Cn1cc2ccc(N3CCn4nc(COc5ccccc5)cc4C3=O)cc2n1 [Example 366]
5 | 7.06 | Cc1nc2cc(N3CCn4nc(COc5ccccc5)cc4C3=O)ccc2s1 [Example 367]
6 | 6.64 | Cc1ccc2ccc(N3CCn4nc(COc5ccccc5)cc4C3=O)cc2n1 [Example 369]
7 | 7.49 | O=C1c2cc(COc3ccccc3)nn2CCN1c1ccc2nsnc2c1 [Example 371]
8 | 7.14 | O=C1c2cc(COc3ccccc3)nn2CCN1c1ccc2nonc2c1 [Example 375]
9 | <5.00 | O=C1c2cc(COc3ccccc3O)nn2CCN1c1ccc(F)cn1 [Example 377]
10 | <4.52 | O=c1[nH]ccn2nc(COc3ccccc3)cc12 [Example 378]

Same assay, conditions: HEK cells transfected with human mGluR5 (H10H or H12H); in presence of EC20 glutamate; read-out: EC50

Row | EC50 [µM] | Structure (SMILES)
11 | 0.071 | CC1CN(c2ccc(F)cc2)C(=O)c2cc(COc3ccccc3)nn21 (racemic) [Example 19]
12 | 0.141 | CC1CN(c2ccc(F)cc2)C(=O)c2cc(COc3ccc(F)cc3)nn21 (racemic) [Example 234]
13 | 0.17 | CC1CN(c2cccc(F)c2)C(=O)c2cc(COc3ccc(F)cc3)nn21 (racemic) [Example 235]
14 | 0.151 | Cc1nc(N2CC(C)n3nc(COc4ccc(F)cc4)cc3C2=O)ccc1F (racemic) [Example 236]
15 | 0.098 | O=C1c2cc(COc3ccccc3)nn2CCN1c1ccc(F)c(F)c1 [Example 7]
16 | 0.162 | Cc1cccc(N2CCn3nc(COc4ccccc4)cc3C2=O)n1 [Example 10]
17 | 1.48 | O=C1c2cc(COc3ccccc3)nn2CCN1c1ccncc1 [Example 14]
18 | > 10 | COC[C@@H]1Cn2nc(COc3ccccc3)cc2C(=O)N1c1ccc(F)cc1 [Example 270]
19 | 0.275 | CNc1cccc(N2CCn3nc(COc4ccccc4)cc3C2=O)n1 [Example 278]
20 | 1.2 | CN(C)c1cccnc1N1CCn2nc(COc3ccccc3)cc2C1=O [Example 289]
21 | 0.62 | COc1cc(N2CCn3nc(COc4ccccc4)cc3C2=O)nnc1Cl [Example 296]
22 | 0.42 | O=C1c2cc(COc3ccccc3)nn2CCN1c1cccc(=O)[nH]1 [Example 359]
23 | 0.19 | O=C1c2cc(COc3ccccc3)nn2CCN1c1ccc2cccnc2c1 [Example 360]
24 | 0.072 | O=C1c2cc(COc3ccccc3)nn2CCN1c1ccc2scnc2c1 [Example 361]
25 | 0.054 | O=C1c2cc(COc3ccccc3)nn2CCN1c1cnc2ccccc2c1 [Example 362]
26 | 1.3 | O=C1c2cc(COc3ccccc3)nn2CCN1c1ccc2ncncc2c1 [Example 363]
27 | 0.046 | O=C1c2cc(COc3ccccc3)nn2CCN1c1ccc2nccc(Cl)c2c1 [Example 364]
28 | 0.04 | O=C1c2cc(COc3ccccc3)nn2CCN1c1cccc(Cl)n1 [Example 365]
29 | 0.85 | Cn1cc2ccc(N3CCn4nc(COc5ccccc5)cc4C3=O)cc2n1 [Example 366]
30 | 0.088 | Cc1nc2cc(N3CCn4nc(COc5ccccc5)cc4C3=O)ccc2s1 [Example 367]
31 | 0.23 | Cc1ccc2ccc(N3CCn4nc(COc5ccccc5)cc4C3=O)cc2n1 [Example 369]
32 | 1.1 | O=C1c2cc(COc3ccccc3)nn2CCN1c1cnc2cccnn12 [Example 370]
33 | 0.032 | O=C1c2cc(COc3ccccc3)nn2CCN1c1ccc2nsnc2c1 [Example 371]
34 | 0.13 | O=C1c2cc(COc3ccccc3)nn2CCN1c1cc(F)cc2cccnc12 [Example 372]
35 | > 10 | O=C1c2cc(COc3ccccc3)nn2CCN1c1ccc2nccnc2n1 [Example 373]
36 | 3.4 | O=C1c2cc(COc3ccccc3)nn2CCN1c1cnc2cnccn12 [Example 374]
37 | 0.072 | O=C1c2cc(COc3ccccc3)nn2CCN1c1ccc2nonc2c1 [Example 375]
38 | > 10 | O=C1c2cc(COc3ccccc3O)nn2CCN1c1ccc(F)cn1 [Example 377]
39 | > 30.2 | O=c1[nH]ccn2nc(COc3ccccc3)cc12 [Example 378]

Same assay, conditions: HEK cells transfected with human mGluR5 (H10H or H12H); in presence of EC20 glutamate; read-out: pEC50 (converted)

Row | EC50 [µM] | Structure (SMILES)
40 | 0.0129 | O=C1c2cc(COc3ccccc3)nn2CCN1c1ccc(F)c2ccccc12 [Example 368]

Same assay, conditions: maximum % effect in concentration-response curve, as percent of response to maximally effective glutamate

Row | Emax [%] | Emax (%) | Structure (SMILES)
41 | 68 | – | CC1CN(c2ccc(F)cc2)C(=O)c2cc(COc3ccccc3)nn21 (racemic) [Example 19]
42 | 69 | – | CC1CN(c2ccc(F)cc2)C(=O)c2cc(COc3ccc(F)cc3)nn21 (racemic) [Example 234]
43 | 64 | – | CC1CN(c2cccc(F)c2)C(=O)c2cc(COc3ccc(F)cc3)nn21 (racemic) [Example 235]
44 | 64 | – | Cc1nc(N2CC(C)n3nc(COc4ccc(F)cc4)cc3C2=O)ccc1F (racemic) [Example 236]
45 | 80 | – | O=C1c2cc(COc3ccccc3)nn2CCN1c1ccc(F)c(F)c1 [Example 7]
46 | 84 | – | Cc1cccc(N2CCn3nc(COc4ccccc4)cc3C2=O)n1 [Example 10]
47 | 72 | – | O=C1c2cc(COc3ccccc3)nn2CCN1c1ccncc1 [Example 14]
48 | 39 | – | COC[C@@H]1Cn2nc(COc3ccccc3)cc2C(=O)N1c1ccc(F)cc1 [Example 270]
49 | 56 | – | CNc1cccc(N2CCn3nc(COc4ccccc4)cc3C2=O)n1 [Example 278]
50 | 65 | – | CN(C)c1cccnc1N1CCn2nc(COc3ccccc3)cc2C1=O [Example 289]
51 | 50 | – | COc1cc(N2CCn3nc(COc4ccccc4)cc3C2=O)nnc1Cl [Example 296]
52 | 64 | – | O=C1c2cc(COc3ccccc3)nn2CCN1c1cccc(=O)[nH]1 [Example 359]
53 | 66 | – | O=C1c2cc(COc3ccccc3)nn2CCN1c1ccc2cccnc2c1 [Example 360]
54 | – | 66 | O=C1c2cc(COc3ccccc3)nn2CCN1c1ccc2scnc2c1 [Example 361]
55 | 71 | – | O=C1c2cc(COc3ccccc3)nn2CCN1c1cnc2ccccc2c1 [Example 362]
56 | 65 | – | O=C1c2cc(COc3ccccc3)nn2CCN1c1ccc2ncncc2c1 [Example 363]
57 | – | 75 | O=C1c2cc(COc3ccccc3)nn2CCN1c1ccc2nccc(Cl)c2c1 [Example 364]
58 | – | 73 | O=C1c2cc(COc3ccccc3)nn2CCN1c1cccc(Cl)n1 [Example 365]
59 | – | 62 | Cn1cc2ccc(N3CCn4nc(COc5ccccc5)cc4C3=O)cc2n1 [Example 366]
60 | – | 60 | Cc1nc2cc(N3CCn4nc(COc5ccccc5)cc4C3=O)ccc2s1 [Example 367]
61 | 69 | – | O=C1c2cc(COc3ccccc3)nn2CCN1c1ccc(F)c2ccccc12 [Example 368]
62 | – | 68 | Cc1ccc2ccc(N3CCn4nc(COc5ccccc5)cc4C3=O)cc2n1 [Example 369]
63 | 68 | – | O=C1c2cc(COc3ccccc3)nn2CCN1c1cnc2cccnn12 [Example 370]
64 | – | 68 | O=C1c2cc(COc3ccccc3)nn2CCN1c1ccc2nsnc2c1 [Example 371]
65 | 67 | – | O=C1c2cc(COc3ccccc3)nn2CCN1c1cc(F)cc2cccnc12 [Example 372]
66 | 55 | – | O=C1c2cc(COc3ccccc3)nn2CCN1c1ccc2nccnc2n1 [Example 373]
67 | 72 | – | O=C1c2cc(COc3ccccc3)nn2CCN1c1cnc2cnccn12 [Example 374]
68 | – | 70 | O=C1c2cc(COc3ccccc3)nn2CCN1c1ccc2nonc2c1 [Example 375]
69 | – | 71 | O=C1c2cc(COc3ccccc3O)nn2CCN1c1ccc(F)cn1 [Example 377]
70 | – | 29 | O=c1[nH]ccn2nc(COc3ccccc3)cc12 [Example 378]

System: not given
Test: not given
Conditions: not given

Row | melting point [°C] | Structure (SMILES)
71 | 99.5 | CC1CN(c2ccc(F)cc2)C(=O)c2cc(COc3ccccc3)nn21 (racemic) [Example 19]
72 | 164.2 | CC1CN(c2ccc(F)cc2)C(=O)c2cc(COc3ccc(F)cc3)nn21 (racemic) [Example 234]
73 | 128.1 | CC1CN(c2cccc(F)c2)C(=O)c2cc(COc3ccc(F)cc3)nn21 (racemic) [Example 235]
74 | 123.5 | Cc1nc(N2CC(C)n3nc(COc4ccc(F)cc4)cc3C2=O)ccc1F (racemic) [Example 236]
75 | > 300 | O=C1c2cc(COc3ccccc3)nn2CCN1c1ccc(F)c(F)c1 [Example 7]
76 | 129.7 | Cc1cccc(N2CCn3nc(COc4ccccc4)cc3C2=O)n1 [Example 10]
77 | 271.3 | O=C1c2cc(COc3ccccc3)nn2CCN1c1ccncc1 [Example 14]
